PubChem BioAssay (NCI)
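Results reflect a 48-hour exposure of cells in 96-well plates to compound at five concentrations. Abbreviation: GI50, concentration required for 50% inhibition of growth. TGI: total growth inhibition.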

Assays:
Assay in all cases: NCI tumour cell line growth inhibition, 48 h
SF-295 CNS = test system: SF-295 CNS
TK-10 renal = test system: TK-10 renal
HCT-15 colon = test system: HCT-15 colon
HOP-62 NSCLC = test system: HOP-62 NSCLC
LOX IMVI melanoma = test system: LOX IMVI melanoma
NCI-H226 lung = test system: NCI-H226 lung
HT29 colon = test system: HT29 colon
RXF 393 renal = test system: RXF 393 renal
OVCAR-8 ovarian = test system: OVCAR-8 ovarian
HL-60(TB) leukemia = test system: HL-60(TB) leukemia

Structure (SMILES) | TGI (SF-295 CNS) [µM] | TGI (TK-10 renal) [µM] | TGI (HCT-15 colon) [µM] | TGI (HOP-62 NSCLC) [µM] | TGI (LOX IMVI melanoma) [µM] | TGI (NCI-H226 lung) [µM] | TGI (HT29 colon) [µM] | TGI (RXF 393 renal) [µM] | TGI (OVCAR-8 ovarian) [µM] | TGI (HL-60(TB) leukemia) [µM] | GI50 (SF-295 CNS) [µM] | GI50 (TK-10 renal) [µM] | GI50 (HCT-15 colon) [µM] | GI50 (HOP-62 NSCLC) [µM] | GI50 (LOX IMVI melanoma) [µM] | GI50 (NCI-H226 lung) [µM] | GI50 (HT29 colon) [µM] | GI50 (RXF 393 renal) [µM] | GI50 (OVCAR-8 ovarian) [µM] | GI50 (HL-60(TB) leukemia) [µM]
Cc1nc(C(N)=S)sc1C(=O)/C=C/c1c(O)ccc2ccccc12 | > 100 | > 100 | > 100 | > 100 | 73.6 | > 100 | > 100 | 98.5 | > 100 | 65.3 | – | – | – | – | – | – | – | – | – | –
O=S(=O)(CCCl)c1ccc(Cl)cc1 | 47.5 | 6.44 | 12.4 | 30.6 | 5.1 | > 100 | 13.8 | 8.96 | 12.9 | 9.79 | 18.2 | 2.32 | 2.92 | 15.7 | 1.91 | 16 | 3.23 | 2.32 | 3.14 | 2.36
CCOC(=O)C1SC(=Nc2ccc(Cl)cc2)N=C1C (stereo unspecified) | 34.9 | 64.4 | 30 | 36.2 | 32.5 | 41.9 | 30.8 | 36.3 | 43.3 | 55.9 | – | – | – | – | – | – | – | – | – | –
O=[N+]([O-])c1ccc(Sc2c3ccccc3nc3cc(Cl)ccc23)cc1 | > 100 | > 100 | > 100 | > 100 | > 100 | > 100 | > 100 | > 100 | > 100 | > 100 | > 100 | > 100 | > 100 | > 100 | > 100 | > 100 | – | – | > 100 | –
O=S(=O)(NCCCNc1nccc(-c2c(-c3ccc(F)cc3)nc3sccn23)n1)c1ccc2ccccc2c1 | > 100 | > 100 | > 100 | > 100 | > 100 | > 100 | 7.58 | > 100 | > 100 | > 100 | 6.86 | 7.54 | 3.26 | > 100 | 4.35 | 5.77 | 2.4 | 5.21 | 4.63 | 4.25
O=c1oc2ccc(I)cc2c(=O)n1-c1ccc(Cl)cc1F | 3.69 | 16.9 | 12.6 | 7.42 | 11.4 | 8.53 | 18.7 | 5.32 | 24.9 | 7.51 | 1.8 | 4.09 | 2.37 | 2 | 1.33 | 1.96 | 3.4 | 1.44 | 1.66 | 1.37
COc1ccc2c(c1)/C(=C/c1cc(OC)c(OC)c(OC)c1)C(=O)N2 | 0.602 | > 70.6 | > 100 | > 47.5 | > 100 | > 100 | 21.1 | 0.587 | > 100 | > 100 | 0.104 | 1.19 | 0.393 | 0.137 | 0.443 | > 30.9 | 0.116 | 0.187 | 1.28 | 0.0908
O=C(N/N=C/c1ccccc1O)c1ccccc1 | 52.1 | > 100 | > 100 | 8.61 | 10.9 | 17.4 | > 100 | 50.9 | > 100 | 8.05 | 1.1 | 4.11 | 0.893 | 1.61 | 1.47 | 1.94 | 3.43 | 2.68 | 3.46 | 2.32
O=c1oc2ccccc2[n+]([O-])c1-c1ccccc1 | > 100 | > 100 | > 100 | > 100 | > 100 | > 100 | > 100 | > 100 | > 100 | > 100 | – | – | – | – | – | – | – | – | – | –
COc1cnc2c(c1)C(=O)c1c-2n(CCCN2CCN(C)CC2)c(=O)c2cc([N+](=O)[O-])ccc12 | 0.483 | 0.715 | 1.26 | 0.392 | 0.396 | 35.8 | 0.352 | 30.4 | 6.96 | 0.372 | 0.0698 | 0.237 | 0.249 | 0.0813 | 0.18 | 13.7 | 0.167 | 11.4 | 1.19 | 0.168
CCCCN(CC)CC(C(C)=O)c1c(O)c2ccccc2oc1=O (stereo unspecified) | > 100 | > 100 | > 100 | > 100 | > 100 | > 100 | > 100 | > 100 | > 100 | > 100 | – | – | – | – | – | – | – | – | – | –
C=C(C)C1C/C=C(/C)CCCC2(CCC3=C(CC(C(=C)C)C/C=C(/C)CCC3)O2)C(=O)C1 (stereo unspecified) | > 100 | > 100 | > 100 | > 100 | > 100 | > 100 | > 100 | > 100 | > 100 | > 100 | – | – | – | – | – | – | – | – | – | –
O=C(O)[C@H](c1ccccc1)[C@@H](C(=O)O)c1ccccc1 | > 100 | > 100 | > 100 | > 100 | > 100 | > 100 | > 100 | > 100 | > 100 | > 100 | – | – | – | – | – | – | – | – | – | –
C=C1C(=O)O[C@H]2[C@H]1CC/C(C=Nc1c(N)cc(C(F)(F)F)cc1Br)=C\CC[C@@]1(C)O[C@@H]21 | 7.96 | 3.49 | 4.24 | 4.82 | 2.74 | 5.29 | 3.13 | 3.11 | 9.03 | 2.48 | 2.66 | 1.98 | 1.55 | 2.17 | 1.4 | 2.09 | 1.63 | 1.59 | 2.34 | 0.397
Nc1ccc(/C=C/C(=O)NCc2cc3cc(-c4ccc(C(=O)N5CCC(F)(F)CC5)cc4)cc(-c4ccc(F)cc4)c3o2)cn1 | > 100 | > 100 | > 100 | > 100 | > 100 | > 100 | > 100 | > 100 | > 100 | > 100 | – | > 100 | 0.679 | > 59.3 | > 77.5 | > 100 | 1.89 | 37.8 | 0.0404 | 5.61
